One experiment has as its target T1, recombinant JAK1 (Homo sapiens, UniProt P23458).
T1 construct: made in house; host or cells: Sf21 insect cells, baculovirus
Briefly: Immune complex kinase assay, recombinant JAK1. Type of experiment: biochemical. The settings on record: FIG. 6C & D. The source says:
(§1) Immune Complex Kinase Assays.

Experiment [1] concerns JAK1/JAK2-dependent STAT activation. Nature of the experiment: EMSA, IL-3 triggered STAT activation in 32Dc11/IL2Rβ cells. The settings on record: 10 μg/ml. Type of experiment: cell-based. Here is the method:
Electrophoretic Mobility Shift Assays (EMSAs). EMSAs were performed to examine the effects of dimethoxyquinazoline compounds on cytokine-induced STAT activation (Goodman et. al., 1998). […] Cells were collected after 15 minutes and resuspended in lysis buffer (100 mM Tris-HCl pH 8.0, 0.5% NP-40, 10% glycerol, […], 0.1 mM NaVO3, 50 mM NaF, 150 mM NaCl, 1 mM DTT, 3 μg/ml Aprotinin, 2 μg/ml Pepstatin A, 1 μg/ml Leupeptin and 0.2 mM PMSF). Lysates were precleared by centrifugation for 30 min. Cell extracts (approximately 10 μg) were incubated with 2 μg of poly(dI-dC) for 30 minutes, followed by a 30 minutes incubation with 1ng of poly. nucleotide kinase-^32P labeled double stranded DNA oligonucleotide representing the IRF-1 STAT DNA binding sequence (Santa Cruz Biotechnology, Santa Cruz, Calif.). Samples were resolved by non-denaturing PAGE and visualized by autoradiography.
(A gel shift assay detects complexes by their altered migration in electrophoresis.)

Another experiment addresses T2, BTK (Homo sapiens, UniProt Q06187).
T2 construct: made in house; host or cells: Sf21 insect cells, baculovirus
Nature of the experiment: Immune complex kinase assay, BTK from Sf21 cells. The experiment is classed as biochemical. Conditions: concentrations as high as 350 μM.
Source text: as §1

The next experiment concerns RBL-2H3 cells. Briefly: Calcium mobilization assay (Fluo-3). The experiment is classed as cell-based, rat. Here is the method:
IgE sensitized RBL-2H3 cells were loaded with 1 μM Fluo-3 for 1 hour as described in the Examples below. The cells were then challenged with DNP-BSA or ionomycin and change in fluorescence was recorded. To study the effect of WHI-P131 on intracellular calcium mobilization, IgE-sensitized and Fluo-3 loaded RBL-2H3 cells were incubated with 3 μM, 12 μM or 30 μM WHI-P131 for 5 minutes prior to challenge with DNP-BSA or ionomycin.
Calcium Measurement: Calcium mobilization assay was performed as described earlier (Zhu et. al., 1998, Clin. Cancer Res., 4:2967-2976). RBL-2H3 cells were loaded with Fluo-3 and stimulated with DNP-BSA in presence and absence of WJI-P131 as described above. Calcium response was measured by an calcium imaging device (Universal Imaging Co., West Chester, Pa.) mounted onto a inverted microscope. The exitation wavelength was 485 nm and the emission wavelength for detection was 535 nm. The fluorescent image of an individual cell was acquired by a CCD72 video camera (Dage-MTI Inc., Michigan City, Ill.) at the speed of 1 frame/s and digitized by computer.
(A change in cytosolic calcium serves as a functional read-out for many receptors and channels.)

In the next experiment the test system is BALB/c mice. Nature of the experiment: Passive systemic anaphylaxis model. Type of experiment: in vivo. Conditions: pretreated mice. As for the experimental part:
FIG. 14B is a photograph showing plasma extravasation during systemic anaphylaxis, evaluated as described in the Examples.
FIG. 14C is a photograph showing results of histopathologic evaluation of mast cell degranulation. Ears were removed 1 hour after the antigen challenge from vehicle treated as well as WHI-P131 treated mice. Formalin-fixed thin sections (3-5 μm) of ears from were stained with Avidin-FITC.
FIG. 4D is a graph showing blood histamine levels of sensitized mice analyzed after antigen challenge. Blood was collected by retro-orbital bleeding and histamine levels were measured by ELISA. Histamine levels are expressed as nM. The histamine levels in the blood of PBS treated mice and IgE/antigen stimulated mice was 493±131 and 7527±2102 nM respectively. The results are the mean±SEM values; n=3.
To induce passive systemic anaphylaxis, BALB/c mice were sensitized with […] DNP-IgE intravenously. At 24 hours DNP-BSA (2 mg) was administered intravenously with 0.5% Evans blue (200 μl). For assessment of vascular leak, animals were sacrificed 30 minutes after the antigen challenge and their foot pads were examined for blue coloration. Histamine levels in plasma were measured 5 minutes after the antigen challenge. […] For histopathologic evaluation of tissue mast cell degranulation, ears of mice were removed 1 hour after the DNP-BSA injection and fixed in 10 percent buffered formalin. Processed thin sections (3-5 μm) were stained with Avidin-FITC (6.25 μg/ml) for 2 hours, washed with PBS to remove unbound dye and then mounted in buffered glycerol, 30 mM triethylenediamine, pH 8.6 (Malaviya et. al., 1994, J. Clin. Invest., 93:1645-1653). In the murine model for antigen induced active anaphylaxis, mice were sensitized with 2 mg BSA in 200 μl aluminum hydroxide gel (Reheis Inc., Berkeley, N.J.). Ten days later anaphylactic shock was induced by the i.v. injection of the animals with 200 μg BSA.

Each structure is given as a SMILES string.

The source of these data is US6452005B1, “JAK-3 inhibitors for treating allergic disorders” (Parker Hughes Institute, priority 1999, dated 2002).

T2 sequence (Q06187 whole entry, species assumed): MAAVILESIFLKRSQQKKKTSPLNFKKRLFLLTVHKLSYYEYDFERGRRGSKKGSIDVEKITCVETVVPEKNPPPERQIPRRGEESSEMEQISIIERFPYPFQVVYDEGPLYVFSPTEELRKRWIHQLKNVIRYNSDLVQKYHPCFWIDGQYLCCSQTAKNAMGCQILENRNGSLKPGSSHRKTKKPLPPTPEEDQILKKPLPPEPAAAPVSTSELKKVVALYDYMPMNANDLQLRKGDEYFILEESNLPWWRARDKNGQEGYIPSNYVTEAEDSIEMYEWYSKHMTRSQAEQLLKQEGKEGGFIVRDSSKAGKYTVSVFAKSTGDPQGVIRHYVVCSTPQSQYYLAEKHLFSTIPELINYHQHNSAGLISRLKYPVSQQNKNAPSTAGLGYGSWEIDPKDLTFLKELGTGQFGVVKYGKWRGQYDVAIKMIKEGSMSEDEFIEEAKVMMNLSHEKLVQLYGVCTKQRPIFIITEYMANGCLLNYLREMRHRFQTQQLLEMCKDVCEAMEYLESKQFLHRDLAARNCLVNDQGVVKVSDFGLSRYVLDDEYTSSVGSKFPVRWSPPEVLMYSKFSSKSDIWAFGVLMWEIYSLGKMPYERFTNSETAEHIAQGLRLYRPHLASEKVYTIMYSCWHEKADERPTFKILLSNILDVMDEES
T1 sequence (P23458 whole entry): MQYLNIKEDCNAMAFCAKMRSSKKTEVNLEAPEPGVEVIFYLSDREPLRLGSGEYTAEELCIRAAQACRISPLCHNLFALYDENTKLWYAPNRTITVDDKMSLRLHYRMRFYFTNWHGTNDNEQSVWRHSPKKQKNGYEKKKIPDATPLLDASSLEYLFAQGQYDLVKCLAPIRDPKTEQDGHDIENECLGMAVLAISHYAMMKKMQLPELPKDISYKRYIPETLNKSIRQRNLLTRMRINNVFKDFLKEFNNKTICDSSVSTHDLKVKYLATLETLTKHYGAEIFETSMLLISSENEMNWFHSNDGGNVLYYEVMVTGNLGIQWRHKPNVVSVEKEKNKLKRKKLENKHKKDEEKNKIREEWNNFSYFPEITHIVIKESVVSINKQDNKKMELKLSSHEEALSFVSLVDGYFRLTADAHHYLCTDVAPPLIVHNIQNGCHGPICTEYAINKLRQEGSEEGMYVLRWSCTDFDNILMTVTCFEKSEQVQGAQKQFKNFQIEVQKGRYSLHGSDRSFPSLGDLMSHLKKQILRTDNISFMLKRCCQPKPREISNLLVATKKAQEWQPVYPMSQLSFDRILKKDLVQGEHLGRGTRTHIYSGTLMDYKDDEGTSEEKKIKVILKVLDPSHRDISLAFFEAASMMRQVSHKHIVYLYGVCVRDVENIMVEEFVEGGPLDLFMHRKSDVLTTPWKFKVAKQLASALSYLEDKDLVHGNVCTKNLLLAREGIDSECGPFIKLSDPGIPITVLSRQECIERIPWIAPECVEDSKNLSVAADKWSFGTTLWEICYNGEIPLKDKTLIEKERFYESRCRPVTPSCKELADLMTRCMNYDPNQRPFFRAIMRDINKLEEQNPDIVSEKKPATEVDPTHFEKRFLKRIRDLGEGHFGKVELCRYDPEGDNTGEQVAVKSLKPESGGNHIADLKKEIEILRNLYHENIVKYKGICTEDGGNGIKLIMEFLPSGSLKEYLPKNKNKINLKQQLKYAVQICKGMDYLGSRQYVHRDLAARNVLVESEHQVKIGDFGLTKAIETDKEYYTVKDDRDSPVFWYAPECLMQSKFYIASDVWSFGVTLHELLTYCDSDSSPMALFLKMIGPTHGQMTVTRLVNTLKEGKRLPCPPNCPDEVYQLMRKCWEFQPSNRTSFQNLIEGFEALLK

Consider `COc1cc2ncnc(Nc3ccc(O)cc3)c2cc1OC` [WHI-P131, 4-(4′-Hydroxylphenyl)-amino-6,7-dimethoxyquinazoline], for which the “inhibitory activity against recombinant JAK1” value at recombinant JAK1 is recorded as “did not exhibit any detectable inhibitory activity”. Besides, the “JAK1/JAK2-dependent STAT activation after stimulation with IL-3” value in experiment [1] was “did not affect”. For the same molecule, on BTK, the “effect on enzymatic activity of BTK” value is on record as “did not affect”. Besides, in the experiment with RBL-2H3 cells, the “ionomycin induced nonspecific calcium responses” value is on record as “not affected”. Besides, the “calcium response to DNP-BSA” value in the experiment with RBL-2H3 cells (30 μM, IgE-sensitized, Fluo-3 loaded) is on record as “abrogated”. For the same molecule, the plasma histamine response entry with BALB/c mice (5 minutes after antigen challenge) was “substantially reduced”. The “blue coloring of foot pads (plasma exudation)” value in the experiment on BALB/c mice (30 min after antigen challenge) is reported as “no significant blue coloring”. In the experiment with BALB/c mice (ears, after IgE/antigen challenge), the “fluorescence intensity of avidin-FITC stained tissue mast cells (degranulation)” value is reported as “no reduction in fluorescence intensity”.
